Experimental data: patent USRE47302E1 (ONYX THERAPEUTICS INC., priority 2013, dated 2019)
Values after ≈ are worked out from the molar mass of the structure shown.

Key:
Solubility pH 7 = conditions: pH 7, aqueous buffer
[1] = biological target: human constitutive 20S proteasome (c20S) (Homo sapiens, UniProt P28074); assay: 20S proteasome assay, chymotrypsin-like activity (succinyl-Leu-Leu-Val-Tyr-AMC), c20S; assay type: biochemical; conditions: LLVY substrate, 1 h continuous
Text: (§1) Assay buffer consisted of TE buffer [20 mmol/L Tris (pH 8.0), 0.5 mmol/L EDTA] with (20S) or without (cell lysate) 0.03% SDS. Reactions were initiated by enzyme or lysate addition and monitored for AMC product formation at 27jC with a plate-based spectofluorometer (Tecan).

[2] = biological target: human 20S immunoproteasome (i20S) (Homo sapiens, UniProt P28062); assay: 20S proteasome assay, chymotrypsin-like activity (succinyl-Leu-Leu-Val-Tyr-AMC), i20S; assay type: biochemical; conditions: LLVY substrate, 1 h continuous
Text: as §1

Compound | solubility (Solubility pH 7) | IC50 [1] | IC50 [2]
C[C@H](NC(=O)CN1CCOCC1)C(=O)N[C@@H](Cc1c[nH]c2ccccc12)C(=O)N[C@@H](CC1CCCC1)C(=O)[C@@]1(C)CO1 [Compound C-1014, (S)-N-((S)-3-cyclopentyl-1-((R)-2-methyloxiran-2-yl)-1-oxopropan-2-yl)-3-(1H-indol-3-yl)-2-((S)-2-(2-morpholinoacetamido)propanamido)propanamide] | 1020 µg/mL (≈ 1750 µM) | 806 nM | 289 nM
COc1ccc([C@H](O)[C@H](NC(=O)[C@H](C)NC(=O)CN2CCOCC2)C(=O)N[C@@H](CC2CCCC2)C(=O)[C@@]2(C)CO2)cc1 [Compound C-1023, (2S,3S)-N-((S)-3-cyclopentyl-1-((R)-2-methyloxiran-2-yl)-1-oxopropan-2-yl)-3-hydroxy-3-(4-methoxyphenyl)-2-((S)-2-(2-morpholinoacetamido)propanamido)propanamide] | 3870 µg/mL (≈ 6570 µM) | 1880 nM | 322 nM
C[C@H](NC(=O)CN1CCOCC1)C(=O)N[C@@H](Cc1cccc(S(C)(=O)=O)c1)C(=O)N[C@@H](CC1CCCC1)C(=O)[C@@]1(C)CO1 [Compound C-1024, (S)-N-((S)-3-cyclopentyl-1-((R)-2-methyloxiran-2-yl)-1-oxopropan-2-yl)-3-(3-(methylsulfonyl)phenyl)-2-((S)-2-(2-morpholinoacetamido)propanamido)propanamide] | 4760 µg/mL (≈ 7670 µM) | 715 nM | 707 nM
COc1ccc(C[C@H](NC(=O)[C@@H](C)NC(=O)[C@@H]2CCCO2)C(=O)N[C@@H](CC2CCCC2)C(=O)[C@@]2(C)CO2)cc1 [Compound C-1031, (S)-N-((R)-1-(((S)-1-(((S)-3-cyclopentyl-1-((R)-2-methyloxiran-2-yl)-1-oxopropan-2-yl)amino)-3-(4-methoxyphenyl)-1-oxopropan-2-yl)amino)-1-oxopropan-2-yl)tetrahydrofuran-2-carboxamide] | 462 µg/mL (≈ 850 µM) | > 250000 nM | 2980 nM
COc1ccc(C[C@H](NC(=O)[C@@H](C)NC(=O)[C@H]2CCCO2)C(=O)N[C@@H](CC2CCCC2)C(=O)[C@@]2(C)CO2)cc1 [Compound C-1032, (R)-N-((R)-1-(((S)-1-(((S)-3-cyclopentyl-1-((R)-2-methyloxiran-2-yl)-1-oxopropan-2-yl)amino)-3-(4-methoxyphenyl)-1-oxopropan-2-yl)amino)-1-oxopropan-2-yl)tetrahydrofuran-2-carboxamide] | 251 µg/mL (≈ 462 µM) | 24800 nM | 436 nM
COc1ccc(C[C@H](NC(=O)[C@H](C)NC(=O)CN2CCOCC2)C(=O)N[C@@H](C[C@@H]2CCC(F)(F)C2)C(=O)[C@@]2(C)CO2)cc1 [Compound C-1033, (S)-N-((S)-3-((S)-3,3-difluorocyclopentyl)-1-((R)-2-methyloxiran-2-yl)-1-oxopropan-2-yl)-3-(4-methoxyphenyl)-2-((S)-2-(2-morpholinoacetamido)propanamido)propanamide] | 3210 µg/mL (≈ 5280 µM) | 121000 nM | 3100 nM
COc1ccc(C[C@H](NC(=O)[C@H](C)NC(=O)CN2CCOCC2)C(=O)N[C@@H](C[C@H]2CCC(F)(F)C2)C(=O)[C@@]2(C)CO2)cc1 [Compound C-1034, (S)-N-((S)-3-((R)-3,3-difluorocyclopentyl)-1-((R)-2-methyloxiran-2-yl)-1-oxopropan-2-yl)-3-(4-methoxyphenyl)-2-((S)-2-(2-morpholinoacetamido)propanamido)propanamide] | 2780 µg/mL (≈ 4570 µM) | 25400 nM | 1050 nM
COc1ccc(C[C@H](NC(=O)[C@@H](C)NC(=O)[C@@H]2CCOC2)C(=O)N[C@@H](CC2CCCC2)C(=O)[C@@]2(C)CO2)cc1 [Compound C-1036, (R)-N-((R)-1-(((S)-1-(((S)-3-cyclopentyl-1-((R)-2-methyloxiran-2-yl)-1-oxopropan-2-yl)amino)-3-(4-methoxyphenyl)-1-oxopropan-2-yl)amino)-1-oxopropan-2-yl)tetrahydrofuran-3-carboxamide] | 277 µg/mL (≈ 510 µM) | 16500 nM | 480 nM
COc1ccc(C[C@H](NC(=O)[C@@H](C)NC(=O)[C@H]2CCOC2)C(=O)N[C@@H](CC2CCCC2)C(=O)[C@@]2(C)CO2)cc1 [Compound C-1037, (S)-N-((R)-1-(((S)-1-(((S)-3-cyclopentyl-1-((R)-2-methyloxiran-2-yl)-1-oxopropan-2-yl)amino)-3-(4-methoxyphenyl)-1-oxopropan-2-yl)amino)-1-oxopropan-2-yl)tetrahydrofuran-3-carboxamide] | 1330 µg/mL (≈ 2440 µM) | 5860 nM | 356 nM
C[C@H](NC(=O)CN1CCOCC1)C(=O)N[C@@H](Cc1ccc(O)c(O)c1)C(=O)N[C@@H](CC1CCCC1)C(=O)[C@@]1(C)CO1 [Compound C-1039, (S)-N-((S)-3-cyclopentyl-1-((R)-2-methyloxiran-2-yl)-1-oxopropan-2-yl)-3-(3,4-dihydroxyphenyl)-2-((S)-2-(2-morpholinoacetamido)propanamido)propanamide] | 7010 µg/mL (≈ 12200 µM) | 694 nM | 202 nM
COc1ccc(C[C@H](NC(=O)[C@H](C)NC(=O)CN2CCCC(F)(F)C2)C(=O)N[C@@H](CC2CCCC2)C(=O)[C@@]2(C)CO2)cc1 [Compound C-1043, (S)-N-((S)-3-cyclopentyl-1-((R)-2-methyloxiran-2-yl)-1-oxopropan-2-yl)-2-((S)-2-(2-(3,3-difluoropiperidin-1-yl)acetamido)propanamido)-3-(4-methoxyphenyl)propanamide] | 79.2 µg/mL (≈ 131 µM) | 404 nM | 251 nM
COc1ccc(C[C@H](NC(=O)[C@H](C)NC(=O)CN2CCOCC2)C(=O)N[C@@H](CC2=C(C)CCC2)C(=O)[C@@]2(C)CO2)cc1 [Compound C-1044, (S)-3-(4-methoxyphenyl)-N-((S)-3-(2-methylcyclopent-1-en-1-yl)-1-((R)-2-methyloxiran-2-yl)-1-oxopropan-2-yl)-2-((S)-2-(2-morpholinoacetamido)propanamido)propanamide] | 1900 µg/mL (≈ 3250 µM) | 9090 nM | 2580 nM
COc1ccc(C[C@H](NC(=O)[C@H](C)NC(=O)CN2CCC(Cl)CC2)C(=O)N[C@@H](CC2CCCC2)C(=O)[C@@]2(C)CO2)cc1 [Compound C-1045, (S)-2-((S)-2-(2-(4-chloropiperidin-1-yl)acetamido)propanamido)-N-((S)-3-cyclopentyl-1-((R)-2-methyloxiran-2-yl)-1-oxopropan-2-yl)-3-(4-methoxyphenyl)propanamide] | 50.2 µg/mL (≈ 83 µM) | 470 nM | 308 nM
COc1ccc(C[C@H](NC(=O)[C@H](C)NC(=O)CN2CCC(C(F)(F)F)CC2)C(=O)N[C@@H](CC2CCCC2)C(=O)[C@@]2(C)CO2)cc1 [Compound C-1047, (S)-N-((S)-3-cyclopentyl-1-((R)-2-methyloxiran-2-yl)-1-oxopropan-2-yl)-3-(4-methoxyphenyl)-2-((S)-2-(2-(4-(trifluoromethyl)piperidin-1-yl)acetamido)propanamido)propanamide] | 24.1 µg/mL (≈ 37.7 µM) | 707 nM | 438 nM
